Legend:
[1] = target: T1, MR (Homo sapiens, UniProt P08235); assay: MR transcriptional reporter assay, agonist mode (HEPG2 cells); assay type: cell-based; details: % of maximal aldosterone-stimulated activity
T1 construct: expressed in transfected cells; host or cells: HEPG2
T1 sequence (P08235 1-984): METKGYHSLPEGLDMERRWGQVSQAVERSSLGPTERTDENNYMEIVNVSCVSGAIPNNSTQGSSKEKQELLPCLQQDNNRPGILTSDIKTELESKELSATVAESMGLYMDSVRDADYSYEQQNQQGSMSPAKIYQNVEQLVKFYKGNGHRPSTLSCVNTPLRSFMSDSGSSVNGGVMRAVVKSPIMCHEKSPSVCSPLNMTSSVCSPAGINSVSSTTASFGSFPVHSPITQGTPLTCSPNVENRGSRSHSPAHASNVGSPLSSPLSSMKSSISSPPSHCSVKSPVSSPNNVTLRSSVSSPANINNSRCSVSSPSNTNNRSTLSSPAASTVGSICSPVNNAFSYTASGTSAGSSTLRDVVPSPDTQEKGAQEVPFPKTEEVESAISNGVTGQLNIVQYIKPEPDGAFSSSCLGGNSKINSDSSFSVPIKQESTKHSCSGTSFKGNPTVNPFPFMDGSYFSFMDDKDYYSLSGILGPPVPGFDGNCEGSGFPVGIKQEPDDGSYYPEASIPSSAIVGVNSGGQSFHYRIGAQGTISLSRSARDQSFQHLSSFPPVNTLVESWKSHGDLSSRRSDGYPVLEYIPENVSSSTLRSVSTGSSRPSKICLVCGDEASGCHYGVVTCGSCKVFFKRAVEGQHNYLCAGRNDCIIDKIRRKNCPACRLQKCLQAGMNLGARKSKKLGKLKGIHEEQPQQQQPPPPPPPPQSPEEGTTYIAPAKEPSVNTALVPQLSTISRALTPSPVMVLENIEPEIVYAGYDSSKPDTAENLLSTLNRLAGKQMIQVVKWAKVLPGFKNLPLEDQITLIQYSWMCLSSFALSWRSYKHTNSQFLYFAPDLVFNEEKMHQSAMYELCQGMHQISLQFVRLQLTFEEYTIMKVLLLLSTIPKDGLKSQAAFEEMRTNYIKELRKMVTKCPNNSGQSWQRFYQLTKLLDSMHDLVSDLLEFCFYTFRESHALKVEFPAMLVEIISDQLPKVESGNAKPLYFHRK
Procedure: Transcriptional assays were performed by seeding 100 μL of cells at a density of 250,000 cells/mL into 96-well cell culture plates in RPMI 1640 supplemented with 5% charcoal-stripped serum and allowed to attach overnight. […] Triplicate transfections were performed using 418 ng reporter vector (2X PRE-Luciferase for PR-A and PR-B, MMTV-Luciferase for MR), 50 ng CMVpRL (normalization vector), 10 ng NHR expression vector (CMX-PR-A, pCDNA-PR-B or 6R-MR), and 0.7 μL lipofectin. […] The final agonist concentration used in the antagonist assays was 1 nM. Following 24 hr incubation, the medium was removed and the cells were lysed in 40 μL of lysis buffer (25 mM Tris Phosphate, 2 mM CDTA, 10% Glycerol, 0.5% Triton X-100, 2 mM DTT). Firefly luciferase activity was measured immediately following the addition of 40 μL luciferase buffer (20 mM tricine, 0.1 mM EDTA, 1.07 mM (MgCO3)4 Mg(OH)2· 5H2O, 2.67 mM MgSO4, 33.3 mM DTT, 270 μM Coenzyme A, 470 μM luciferin, 530 μM ATP).

[2] = target: T2, PR-B (Homo sapiens, UniProt P06401); assay: PR-B transcriptional reporter assay, agonist mode (HEPG2 cells); assay type: cell-based; details: % of maximal R5020-stimulated activity
T2 construct: cloning full-length human PRb into pCDNA; expressed in transfected cells; host or cells: HEPG2
T2 sequence (P06401 1-933): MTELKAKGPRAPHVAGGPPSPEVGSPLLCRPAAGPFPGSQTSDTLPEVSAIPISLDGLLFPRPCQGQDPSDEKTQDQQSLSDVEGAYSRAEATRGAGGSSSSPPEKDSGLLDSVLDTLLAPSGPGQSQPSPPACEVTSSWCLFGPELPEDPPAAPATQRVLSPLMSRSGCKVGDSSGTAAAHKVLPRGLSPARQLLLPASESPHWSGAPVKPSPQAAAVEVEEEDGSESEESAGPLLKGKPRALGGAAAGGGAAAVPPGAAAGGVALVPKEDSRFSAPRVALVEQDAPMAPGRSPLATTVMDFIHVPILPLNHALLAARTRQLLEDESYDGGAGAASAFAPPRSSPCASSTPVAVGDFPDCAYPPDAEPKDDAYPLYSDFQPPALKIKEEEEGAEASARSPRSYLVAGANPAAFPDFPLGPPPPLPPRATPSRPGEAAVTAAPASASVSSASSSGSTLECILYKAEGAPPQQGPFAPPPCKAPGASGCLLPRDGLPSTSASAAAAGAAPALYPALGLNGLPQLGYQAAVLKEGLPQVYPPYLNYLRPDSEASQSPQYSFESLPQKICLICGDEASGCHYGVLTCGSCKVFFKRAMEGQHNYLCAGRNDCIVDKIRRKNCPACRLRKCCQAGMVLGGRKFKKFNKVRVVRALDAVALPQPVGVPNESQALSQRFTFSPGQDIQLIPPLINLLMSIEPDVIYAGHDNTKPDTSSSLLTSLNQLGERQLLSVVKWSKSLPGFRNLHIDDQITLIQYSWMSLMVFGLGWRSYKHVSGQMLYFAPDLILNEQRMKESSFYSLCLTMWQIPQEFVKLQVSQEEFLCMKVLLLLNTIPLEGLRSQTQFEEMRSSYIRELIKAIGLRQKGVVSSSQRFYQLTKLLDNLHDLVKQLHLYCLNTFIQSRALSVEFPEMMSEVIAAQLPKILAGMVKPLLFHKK

[3] = test system: MCF7 tumors; assay: MCF7 xenograft efficacy; assay type: in vivo, mice; details: […]60 day E2 pellets; GDC-0810 100 mg/kg/day p.o.; fulvestrant clinically relevant dose (50 then 25 mg/kg s.c.) and 200 mg/kg 3 times per week; 28 days
[4] = test system: uterus of juvenile rats; assay: Juvenile rat uterus assays; assay type: in vivo, Sprague Dawley rats; details: for Uterine wet weight: tamoxifen 60 mg/kg orally once a day for 3 days, GDC-0810 0.1 or 10 mg/kg, relative to vehicle control; for Uterine wet weight / Endometrial epithelial cell morphology (histology, endometrial cell height): fulvestrant 50 mg/kg; for Endometrial epithelial cell morphology (histology, endometrial cell height): tamoxifen 60 mg/kg, GDC-0810 0.1 and 10 mg/kg
Text: […] Rats were euthanized 4 hr after the final dose. Uteri were then dissected, weighed and fixed for histological examination. A small portion of tissue was saved prior to fixation for mRNA isolation and gene expression analysis.
H&E stained sections from bilateral representative uterine horn cross-sections were examined from two animals treated with the compounds shown. Endometrial cell height was digitally measured from the basement membrane to the apical (luminal) surface (orange line), using a digitally scanned image at 20X magnification. Obliquely cut areas were avoided. Three digital measurements were taken from each section (n = 6).
Estrogen receptor was detected using the mouse monoclonal anti-ER (clone 1D5, Dako), incubated for 60 min at RT at a dilution of 0.5 µg/ml, and visualized after secondary rabbit anti-mouse antibody binding with Powervision DAB (Leica Powersystems). H-scores were estimated manually, incorporating both intensity and percentage of positive nuclei, using the following formula: (0 x% negative)+(1 x% weak)+(2 x% moderate)+(3 x% strong)

Row | SMILES | Emax [1] | Emax [2] | Tumor growth response, MCF7 xenograft [3] | ER levels in the uterus (IHC) [4] | Uterine wet weight [4] | Endometrial epithelial cell morphology (histology, endometrial cell height) [4]
1 | CC/C(=C(\c1ccc(O)cc1)c1ccc(OCCN(C)C)cc1)c1ccccc1 [4-OH Tam, 4-hydroxytamoxifen] | 0% | 0.39 ± 0.23% |  |  |  | 
2 | C[C@]12CC[C@@H]3c4ccc(O)cc4C[C@@H](CCCCCCCCC[S+]([O-])CCCC(F)(F)C(F)(F)F)[C@H]3[C@@H]1CC[C@@H]2O (stereo partly drawn) [Fulvestrant] |  |  | only modest tumor growth inhibition | robustly depletes ER | significant decrease in uterine weight | remained cuboidal
3 | CC/C(=C(/c1ccc(/C=C/C(=O)O)cc1)c1ccc2[nH]ncc2c1)c1ccc(F)cc1Cl [GDC-0810] | 0.09 ± 0.16% | 0.35 ± 0.31% | caused tumor regressions | only modestly reduces ER levels | did not significantly alter uterine wet | induced a cuboidal to columnar morphological change

Source: publication PMC4961458 (eLife, 2016)
